Assay results as given in US20230173764A1, “SURGICAL SYSTEM AND METHODS OF USE” (priority 2021, published 2023).

Experiments:
fibrinolysis = test: concentrations effective against fibrinolysis; settings: one tenth of the doses used in the non-GLP acute porcine study
From the text: However, in some embodiments, however, higher doses of tranexamic acid are used for topical applications to account for tranexamic acid being widely distributed throughout the extracellular and intracellular compartments when given preoperatively.

[1] = given preoperatively; cited from earlier work
myofibroblast formation = settings: Ajmal et al. (2003); cited from earlier work

| SMILES | effective in reversing fibrinolysis (fibrinolysis) | time to reach plasma concentrations [1] | myofibroblast formation (myofibroblast formation) |
| --- | --- | --- | --- |
| NC[C@H]1CC[C@H](C(=O)O)CC1 [tranexamic acid] | effective | 5 to 15 min | – |
| O=S(=O)([O-])CCS.[Na+] [MESNA, sodium 2-mercaptoethane sulfonate] | – | – | diminish myofibroblast formation |
